A melting point compilation (Tetko et al.)

| Structure (SMILES) | melting point [°C] |
| --- | --- |
| N#Cc1ccc(C(Cl)=Cc2cccc(C=C(Cl)c3ccc(C#N)cc3[N+](=O)[O-])c2)c([N+](=O)[O-])c1 | 268 |
| Oc1ccc(C#Cc2ccc(F)cc2)cc1 | 149 |
| CC(=O)Nc1cc([N+](=O)[O-])c(C=Cc2ccccc2)cc1C=Cc1ccccc1 | 227 |
| Nc1ccccc1-c1cccnc1 | 72 |
| CC(O)CC(C)(C)O (stereo not drawn) | -40 |
| CC(C)(C)NC(N)=O | 178 to 182 |
| O=CC(F)(F)C(F)(F)C(F)(F)C(F)(F)C(F)(F)C(F)(F)C(F)(F)C(F)(F)C=O | 68 to 70.5 |
| CNC(=O)NC | 108 |
| O=C(Cc1ccccc1)C(Cc1ccccc1)=NNc1ccccc1 | 137 |
| Fc1cc(CBr)ccc1Cl | 32 |
| C/C=C/Br | -77 |
| O=CC(C=O)c1ccc2ccccc2n1 | 198 to 202 |
| O=C(CCl)Nc1ccc(F)cc1 | 131 to 132 |
| Clc1cc2c(oc3c(Cl)c(Cl)c(Cl)cc32)c(Cl)c1Cl | 240 |
| CCOC(=O)C(N)=S | 63 |
| CC(O)(c1ccc(Cl)cc1)c1ccc(Cl)cc1 | 70 |
| CC(C)N(C(=O)CCl)c1ccccc1 | 77 |
| ClC1CC2CCC1C2 (stereo not drawn) | -5 |
| Clc1cccc2cc3c(Cl)cccc3cc12 | 189 |
| Cn1c(/C(C#N)=N/Nc2ccc(Cl)cc2)nc2ccccc21 | 215 |
| Cc1ccc(N(SC(F)(Cl)Cl)S(=O)(=O)N(C)C)cc1 | 96 |
| OCc1cc(Cl)ccc1O | 90 to 91 |
| COc1coc(CSP(=O)(OC)OC)cc1=O | 96 |

| Structure (SMILES) | melting point [°C] |
| --- | --- |
| CC12C=CCC1C1CCC3CC(O)CCC3(C)C1CC2 (stereo not drawn) | 143 |
| COC(=O)c1ccc(C=CC(=O)c2ccccc2)cc1 | 119 to 120 |
| O=C1C(c2cccc3ccccc23)=[N+]([O-])c2cc([N+](=O)[O-])ccc21 | 223 |
| CC(CC(C(N)=O)(c1ccccc1)c1ccccn1)N(C)C (stereo not drawn) | 156 |
| Cc1ccc(-c2ccc(C=C3N=C(c4ccccc4)OC3=O)o2)cc1 | 149 to 150 |
| Clc1ccc2c(Cl)ccnc2c1 | 93 |
| Nc1ccccc1C=Cc1cc(/C=C/c2ccccc2)c(N)cc1N | 146 |
| c1ccc(P(C2CCCCC2)C2CCCCC2)cc1 | 59.5 |
| Nc1ccc2nccnc2c1 | 159 |
| Cc1nc(N(C)C)nc(OC(=O)N(C)C)c1C | 91.6 |
| COc1ccc(C(O)c2ccc(OC)cc2)cc1 | 70 |
| COc1cccc2c1ccn2C | 89 to 91 |
| OCC1OC(O)C(F)C(O)C1O (stereo not drawn) | 170 to 176 |
| N#CCc1ccccc1OCc1ccccc1 | 77 |
| c1ccc(C2(N3CCCCC3)CCCCC2)cc1 | 46.5 |
| Nc1ccc(Br)c(Cl)c1 | 74 |
| O=CC(C=O)c1cnc2ccccc2n1 | 197 to 199 |
| O=C(CCCN1CCC2(CC1)C(=O)NCN2c1ccccc1)c1ccc(F)cc1 | 190 |
| CCN(CC)CCSC(=O)N(c1ccccc1)c1ccccc1 | 48 |
| C1=CC2=CC=C(O2)C2=CC=C(C=CC3=CC=C(O3)C3=CC=C1O3)O2 | 270 to 271 |
| CC(C)(O)C(Br)(Br)Br | 169 |
| C[C@@H]1N[C@H](C(=O)O)CC2c3ccccc3NC21 (stereo partly drawn) | 286 |
| OC(c1ccccc1)c1ccc(Br)cc1 (stereo not drawn) | 61 to 63 |

Next, values leading:

| melting point [°C] | Structure (SMILES) |
| --- | --- |
| 78 to 80 | Fc1cc(CCl)c2c(c1)COCO2 |
| 80 to 81 | Cc1nc(-c2ccc(N=C=O)cc2)cs1 |
| 192 to 197 | O=C1c2ccccc2C(=O)c2cc(CO)ccc21 |
| 95.5 | O=[N+]([O-])c1cc(N(CCO)CCO)ccc1NCCO |
| 125 | COC(=O)c1ccc2[nH]ccc2c1 |
| 129 to 131 | OCc1ccc2[nH]cnc2c1 |
| 92 | N#Cc1ccc(F)c([N+](=O)[O-])c1 |
| 83 to 85 | CC(=NO)c1ccc2c(c1)CC(C)O2 (stereo not drawn) |
| 46 | CC(=O)c1ccc(C(C)=O)c([N+](=O)[O-])c1 |
| 249 | N=C1NC(=O)CS1 |
| 320 to 322 | O=C1c2ccccc2C(=O)c2c1cc1ccccc1c2O |
| 138 | O=C(O)Cc1ccc(I)cc1 |
| 118 to 120 | Cc1c(Cl)cc(F)cc1S(N)(=O)=O |
| 138 to 140 | CC(=O)Cc1ncn(-c2cc(C)on2)n1 |
| 164 | O=c1cc(-c2ccccc2)oc2ccc3ccccc3c12 |
| 80 to 82 | C/C=C/C1Nn2c(nnc2-c2ccc(OC)cc2)S1 (stereo not drawn) |
| 157 to 158 | O=C(O)c1cccc(-c2ccco2)c1 |
| 31 | COc1ccc(Br)c([N+](=O)[O-])c1 |
| 99 to 101 | CC(=O)OCC1OC(n2ncc(=O)[nH]c2=O)C(OC(C)=O)C1OC(C)=O (stereo not drawn) |
| 194 | Nc1ccc(Br)nn1 |
| 55 | C[Si](C)(C)c1cnc([Si](C)(C)C)s1 |
| 200 to 203 | O=C(O)c1c[nH]c2ccccc12 |
| 134 to 136 | ON=C(c1cccs1)c1cccs1 |
| 52 to 53 | CN(C)c1nc2ccccc2cc1C=O |

| melting point [°C] | Structure (SMILES) |
| --- | --- |
| 68 | OC1(c2ccccc2)Cc2ccccc21 (stereo not drawn) |
| 150 | CCC(=O)c1ccc(O)cc1 |
| 97 | Cc1ccc(C#N)c([N+](=O)[O-])c1 |
| 145 | CCN(CC)CN1C(=O)C(=Cc2ccco2)SC1=S |
| 74 to 75 | COC(=O)c1sc(C(F)(F)F)c(-c2ccccc2)c1S(=O)(=O)Cl |
| 83 to 86 | N#CCSc1ccc2ccccc2c1 |
| 266 | CC1(C)OC2CC3C4CC(F)C5=CC(=O)C=CC5(C)C4(F)C(O)CC3(C)C2(C(=O)CO)O1 (stereo not drawn) |
| 83 | Nc1ccc(Cl)nc1 |
| 193 | O=C1C=C(Nc2ccccc2)C(=O)c2ccccc21 |
| 196 to 198 | COCc1cc(=O)oc2cc(O)c(Cl)cc12 |
| 114 | Cc1cc(C)c(S(=O)(=O)NN)c(C)c1 |
| 73.2 to 73.9 | OCc1cc(F)cc2c1OCOC2 |
| 45 to 47 | COc1cccc(OC)c1N=C=O |
| 168 | O=c1ccn(C2OC(CO)C(O)C2O)c(=O)[nH]1 (stereo not drawn) |
| 160 to 162 | O=C(O)c1cccc(-c2nccs2)c1 |
| 110 to 113 | O=C1OC(C2COC3(CCCCC3)O2)C2OC3(CCCCC3)OC12 (stereo not drawn) |
| 124 to 125 | O=C(O)/C=C/c1c(F)cccc1F |
| 72 | Cc1cc(S(=O)(=O)Cl)c(Cl)cc1Cl |
| 160 | COc1ccc(-c2nnc3n2NC(c2ccc(Cl)cc2)S3)cc1 (stereo not drawn) |
| 222 | CC(CCC(=O)O)C1CCC2C3C(=O)CC4CC5(CCC4(C)C3CC(=O)C12C)OCCO5 (stereo not drawn) |
| 139 | O=c1[nH]oc2ccccc12 |
| 296 | Nc1c(C(=O)O)ccc2c1C(=O)c1ccccc1C2=O |
| 145 | CC(CCC(=O)O)C1CCC2C3C(=O)CC4CCCCC4(C)C3CCC12C (stereo not drawn) |
